Reference: PubChem BioAssay (NCI)
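Results reflect a 48-hour exposure of cells in 96-well plates to compound at five concentrations. GI50 marks 50% less growth. TGI: concentration producing complete growth inhibition.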

Experiments:
Assay in all cases: NCI-60 cell line screen, 48 h
HT29 colon = system: HT29 colon
A549 NSCLC = system: A549 NSCLC
SK-MEL-28 melanoma = system: SK-MEL-28 melanoma
HS 578T breast = system: HS 578T breast
HCT-116 colon = system: HCT-116 colon
MDA-MB-231 breast = system: MDA-MB-231 breast
NCI-H460 lung = system: NCI-H460 lung
OVCAR-4 ovarian = system: OVCAR-4 ovarian
SN12C renal = system: SN12C renal
MALME-3M melanoma = system: MALME-3M melanoma
HCC-2998 colon = system: HCC-2998 colon
ACHN renal = system: ACHN renal
IGROV1 ovarian = system: IGROV1 ovarian
PC-3 prostate = system: PC-3 prostate
SNB-19 CNS = system: SNB-19 CNS
M14 melanoma = system: M14 melanoma
SF-539 CNS = system: SF-539 CNS
COLO 205 colon = system: COLO 205 colon
SK-MEL-5 melanoma = system: SK-MEL-5 melanoma
NCI-H522 lung = system: NCI-H522 lung
TK-10 renal = system: TK-10 renal
HCT-15 colon = system: HCT-15 colon
OVCAR-3 ovarian = system: OVCAR-3 ovarian
CCRF-CEM leukemia = system: CCRF-CEM leukemia
RXF 393 renal = system: RXF 393 renal
A498 renal = system: A498 renal
SW-620 colon = system: SW-620 colon
T-47D breast = system: T-47D breast
MOLT-4 leukemia = system: MOLT-4 leukemia
BT-549 breast = system: BT-549 breast
NCI/ADR-RES ovarian = system: NCI/ADR-RES ovarian
UACC-62 melanoma = system: UACC-62 melanoma
SNB-75 CNS = system: SNB-75 CNS
786-0 renal = system: 786-0 renal
SK-MEL-2 melanoma = system: SK-MEL-2 melanoma
UO-31 renal = system: UO-31 renal
U251 CNS = system: U251 CNS
HL-60(TB) leukemia = system: HL-60(TB) leukemia
DU-145 prostate = system: DU-145 prostate
LOX IMVI melanoma = system: LOX IMVI melanoma
CAKI-1 renal = system: CAKI-1 renal
KM12 colon = system: KM12 colon
UACC-257 melanoma = system: UACC-257 melanoma
MCF7 breast = system: MCF7 breast
SK-OV-3 ovarian = system: SK-OV-3 ovarian
OVCAR-5 ovarian = system: OVCAR-5 ovarian
K-562 leukemia = system: K-562 leukemia
OVCAR-8 ovarian = system: OVCAR-8 ovarian
SF-268 CNS = system: SF-268 CNS
RPMI-8226 leukemia = system: RPMI-8226 leukemia
HOP-92 NSCLC = system: HOP-92 NSCLC
MDA-MB-435 = system: MDA-MB-435
NCI-H23 lung = system: NCI-H23 lung
SF-295 CNS = system: SF-295 CNS
NCI-H226 lung = system: NCI-H226 lung
HOP-62 NSCLC = system: HOP-62 NSCLC

O=C1/C(=C\c2ccc(Cl)cc2)CN(C(=O)c2ccccc2)C/C1=C\c1ccc(Cl)cc1
GI50 (HT29 colon): 1.66 µM
TGI (HT29 colon): 5 µM
GI50 (A549 NSCLC): 3.15 µM
TGI (A549 NSCLC): > 45.6 µM
GI50 (SK-MEL-28 melanoma): 2.94 µM
TGI (SK-MEL-28 melanoma): 9.68 µM
GI50 (HS 578T breast): 2.92 µM
TGI (HS 578T breast): 9.17 µM
GI50 (HCT-116 colon): 0.337 µM
TGI (HCT-116 colon): 1.04 µM
GI50 (MDA-MB-231 breast): 2.47 µM
TGI (MDA-MB-231 breast): 6.9 µM
GI50 (NCI-H460 lung): 5.97 µM
TGI (NCI-H460 lung): > 84.7 µM
GI50 (OVCAR-4 ovarian): 2.54 µM
TGI (OVCAR-4 ovarian): 19.4 µM
GI50 (SN12C renal): 2.16 µM
TGI (SN12C renal): 5.4 µM
GI50 (MALME-3M melanoma): 9.17 µM
TGI (MALME-3M melanoma): 51.7 µM
GI50 (HCC-2998 colon): 2.03 µM
TGI (HCC-2998 colon): 3.97 µM
GI50 (ACHN renal): 2.73 µM
TGI (ACHN renal): 8.17 µM
GI50 (IGROV1 ovarian): 3.22 µM
TGI (IGROV1 ovarian): 9.78 µM
GI50 (PC-3 prostate): 2.57 µM
TGI (PC-3 prostate): 10.1 µM
GI50 (SNB-19 CNS): 3.27 µM
TGI (SNB-19 CNS): 19.3 µM
GI50 (M14 melanoma): 2.63 µM
TGI (M14 melanoma): 7.39 µM
GI50 (SF-539 CNS): 2.15 µM
TGI (SF-539 CNS): 5.13 µM
GI50 (COLO 205 colon): 3.45 µM
TGI (COLO 205 colon): 10.5 µM
GI50 (SK-MEL-5 melanoma): 2.39 µM
TGI (SK-MEL-5 melanoma): 6.78 µM
GI50 (NCI-H522 lung): 3.22 µM
TGI (NCI-H522 lung): 10.8 µM
GI50 (TK-10 renal): 3.59 µM
TGI (TK-10 renal): 14.1 µM
GI50 (HCT-15 colon): 1.86 µM
TGI (HCT-15 colon): 5.03 µM
GI50 (OVCAR-3 ovarian): 2.43 µM
TGI (OVCAR-3 ovarian): 5.49 µM
GI50 (CCRF-CEM leukemia): 2.5 µM
TGI (CCRF-CEM leukemia): > 70.2 µM
GI50 (RXF 393 renal): 1.68 µM
TGI (RXF 393 renal): 3.26 µM
GI50 (A498 renal): 23 µM
TGI (A498 renal): > 74 µM
GI50 (SW-620 colon): 1.75 µM
TGI (SW-620 colon): 5.01 µM
GI50 (T-47D breast): 4.33 µM
TGI (T-47D breast): > 100 µM
GI50 (MOLT-4 leukemia): 4.25 µM
TGI (MOLT-4 leukemia): > 100 µM
GI50 (BT-549 breast): 2.89 µM
TGI (BT-549 breast): 7.17 µM
GI50 (NCI/ADR-RES ovarian): 3.59 µM
TGI (NCI/ADR-RES ovarian): 19.7 µM
GI50 (UACC-62 melanoma): 1.86 µM
TGI (UACC-62 melanoma): 4.55 µM
GI50 (SNB-75 CNS): 3.77 µM
TGI (SNB-75 CNS): > 71.8 µM
GI50 (786-0 renal): 2.19 µM
TGI (786-0 renal): 4.6 µM
GI50 (SK-MEL-2 melanoma): 16.8 µM
TGI (SK-MEL-2 melanoma): 71.2 µM
GI50 (UO-31 renal): 1.83 µM
TGI (UO-31 renal): 5.33 µM
GI50 (U251 CNS): 1.57 µM
TGI (U251 CNS): 3.26 µM
GI50 (HL-60(TB) leukemia): 6.58 µM
TGI (HL-60(TB) leukemia): 66.2 µM
GI50 (DU-145 prostate): 4.12 µM
TGI (DU-145 prostate): > 56.4 µM
GI50 (LOX IMVI melanoma): 0.771 µM
TGI (LOX IMVI melanoma): 2.26 µM
GI50 (CAKI-1 renal): 8.45 µM
TGI (CAKI-1 renal): > 100 µM
GI50 (KM12 colon): 1.2 µM
TGI (KM12 colon): 3.18 µM
GI50 (UACC-257 melanoma): 5.51 µM
TGI (UACC-257 melanoma): 33.9 µM
GI50 (MCF7 breast): 0.437 µM
TGI (MCF7 breast): 3.09 µM
GI50 (SK-OV-3 ovarian): 4.64 µM
TGI (SK-OV-3 ovarian): 32.3 µM
GI50 (OVCAR-5 ovarian): 5.24 µM
TGI (OVCAR-5 ovarian): 43.2 µM
GI50 (K-562 leukemia): 1.98 µM
TGI (K-562 leukemia): > 100 µM
GI50 (OVCAR-8 ovarian): 3.41 µM
TGI (OVCAR-8 ovarian): > 100 µM
GI50 (SF-268 CNS): 3.74 µM
TGI (SF-268 CNS): 17.5 µM
GI50 (RPMI-8226 leukemia): 0.274 µM
TGI (RPMI-8226 leukemia): 1.36 µM
GI50 (HOP-92 NSCLC): 7.18 µM
TGI (HOP-92 NSCLC): 55.9 µM
GI50 (MDA-MB-435): 2.58 µM
TGI (MDA-MB-435): 8.04 µM
GI50 (NCI-H23 lung): 3.13 µM
TGI (NCI-H23 lung): 12.5 µM
GI50 (SF-295 CNS): 3.38 µM
TGI (SF-295 CNS): 57.7 µM
TGI (NCI-H226 lung): > 20.1 µM
GI50 (HOP-62 NSCLC): 2.45 µM
TGI (HOP-62 NSCLC): 6.41 µM
